Measured values taken from US8637274B2, “Inhibitor for the formation of gamma-secretase complex” (Kowa Company, Ltd., priority 2003, dated 2014).

Assays:
Type in all cases: cell-based
[1] = tested on: cholesterol in lipid rafts of SH-SY5Y cell; test: Quantification of cholesterol content in sucrose density-gradient cell membrane fractions (lipid rafts = fraction 3); conditions: for cholesterol content in lipid rafts (fraction 3): 5% LPDS, 48 hours, FIG. 4
Description: (§1) SH-SY5Y cell line (Invitrogen) was subcultured in a complete medium (DMEM (Sigma) containing 10% of fetal bovine serum (Sigma), 100 units/mL of penicillin and […] of streptomycin) using a dish of 15 cm diameter at 37° C.
(§2) The SH-SY5Y cell was cultured in a dish of 15 cm diameter, and the cells reached confluent growth in the dish was washed with phosphate buffered saline (PBS). The cells were detached from the dish using cell scraper and recovered in PBS, then centrifuged at 9807 m/s^2 for 5 minutes. The precipitated cells were suspended in buffer R (20 mM Tris-HCl pH 7.6, 150 mM NaCl, 1 mM EDTA) containing 200 μL of a mixture of 2% CHAPSO and proteases (Complete protease mixture) (Roche). Solubilization of the cell was performed by means of leaving the cell suspension for standing on an ice bath for 20 minutes. After solubilizing, 800 μL of the buffer R containing 56.25% sucrose was added to make the final concentration to be 45% sucrose and 0.4% CHAPSO, and placed in the bottom of centrifuging tube. Further, 3 mL of the buffer R containing 35% sucrose and 1 mL of the buffer R containing 5% sucrose were overlaid sequentially on top of the layers. After centrifugation at 980700 m/s^2 (32000 rpm) for 16 hours at 4° C. using Beckman ultracentrifuge equipped with SW55 rotor, each 500 μL aliquot was withdrawn from top as fractions.
(§3) The SH-SY5Y cell was cultured in a dish of 15 cm diameter, and the cells reached confluent growth in the dish were washed with PBS. After that, methyl-β-cyclodextrin (Sigma) dissolved in DMEM to make the final concentration to be 0 to 2 mM was added to the dish, and cultured at 37° C. for another 30 minutes. These cells were processed and fractionated according to the method described in the Reference Example 2, and subjected to the immunoblotting.
The SH-SY5Y cell was cultured in a dish of 15 cm diameter and the cells of just before arriving confluent growth in a dish were washed with PBS. […]

[2] = tested on: active complex of γ-secretase (nicastrin, presenilin-1, presenilin-2, Pen-2) in lipid rafts of SH-SY5Y cell; test: Immunoblotting of γ-secretase constituents in sucrose density-gradient cell membrane fractions; conditions: for constituents of γ-secretase (nicastrin, presenilin-1, presenilin-2) in lipid rafts fraction (fraction 3): FIG. 3A-3C
Description: as §1, §2
(§4) After SDS-polyacrylamide gel electrophoresis was carried out for each fraction obtained in the Reference Example 2, immunoblotting was performed. The antibodies used were nicastrin N-19 (Santa Cruz) as a nicastrin recognizing antibody, anti-G1L3 as an antibody recognizing C-terminal region of presenilin 1, anti-G2L as an antibody recognizing C-terminal region of presenilin 2, anti-PNT3 as a PEN-2 recognizing antibody, Flotillin-1 (BD Sciences) as a flotillin-1 recognizing antibody, and Calnexin (BD Biosciences) as a calnexin recognizing antibody.
After reacting at room temperature for 1 hour or at 4° C. overnight, the gels were washed twice with TBS-Tween (20 mM Tris-buffered saline, pH 7.4, 0.05% Tween 20). Then, the gels were reacted with HRP-conjugated anti mouse IgG antibody, anti goat IgG antibody, or anti rabbit IgG antibody each for 1 hour, and washed with TBS-Tween. And then, an X-ray film was exposed to the chemiluminescence generated using SuperSignal West Dura (Pierce).
as §3
The SH-SY5Y cell was cultured in a dish of 15 cm diameter and the cells of just before arriving confluent growth in a dish were washed with PBS. After that, the cells were cultured in DMEM containing 5% of LPDS, 250 μM of mevalonic acid and 50 μM of compactin or 5 μM of pitavastatin as a cholesterol synthesis inhibitor for 48 hours. These cells were processed and fractionated according to the method described in the Reference Example 2, and subjected to the immunoblotting.

[3] = tested on: flotillin-1 (marker protein of lipid rafts), SH-SY5Y cell; test: Immunoblotting of lipid raft marker flotillin-1 in sucrose density-gradient cell membrane fractions; conditions: for flotillin in the lipid rafts fraction (structure of lipid rafts): 48 hours, FIG. 3D
Description: as §1, §2, §4
After reacting at room temperature for 1 hour or at 4° C. overnight, the gels were washed twice with TBS-Tween (20 mM Tris-buffered saline, pH 7.4, 0.05% Tween 20). […]

[4] = 5 μM pitavastatin plus 250 μM mevalonic acid
[5] = 5 μM pitavastatin plus 250 μM mevalonic acid, 48 hours
[6] = 50 μM compactin plus 250 μM mevalonic acid
[7] = 50 μM compactin plus 250 μM mevalonic acid, 48 hours

O=C(O)C[C@H](O)C[C@H](O)/C=C/c1c(C2CC2)nc2ccccc2c1-c1ccc(F)cc1 [pitavastatin, (3R,5S,6E)-7-[2-cyclopropyl-4-(4-fluorophenyl)-3-quinolyl]-3,5-dihydroxy-6-heptenoic acid]
cholesterol content in lipid rafts (fraction 3) [1, 4]: decreased | formation of an active complex of γ-secretase in lipid rafts [2, 5]: inhibited the formation of an active complex of γ-secretase in lipid rafts | constituents of γ-secretase (nicastrin, presenilin-1, presenilin-2) in lipid rafts fraction (fraction 3) [2, 5]: disappeared from lipid rafts fraction | flotillin in the lipid rafts fraction (structure of lipid rafts) [3, 4]: still remained in the lipid rafts fraction

methyl-β-cyclodextrin
cholesterol in lipid rafts (fraction 3) ([1]; methyl-β-cyclodextrin 0 to 2 mM, 30 minutes, 37° C., FIG. 2): removed from lipid rafts | formation of an active complex of γ-secretase in lipid rafts ([2]; methyl-β-cyclodextrin 0 to 2 mM, 30 minutes): inhibited the formation of an active complex of γ-secretase in lipid rafts | constituents of γ-secretase (nicastrin, presenilin-1, presenilin-2, Pen-2) in lipid rafts fraction (fraction 3) ([2]; methyl-β-cyclodextrin 0 to 2 mM, 30 minutes, FIG. 1A-1D): disappeared from lipid rafts fraction | distribution of flotillin (marker protein of lipid rafts) among fractions / raft structure ([3]; methyl-β-cyclodextrin 0 to 2 mM, 30 minutes, FIG. 1E): moved from the original position of the lipid rafts of fraction 3 to fraction 9 and 10

CC[C@H](C)C(=O)O[C@H]1CCC=C2C=C[C@H](C)[C@H](CC[C@@H]3C[C@@H](O)CC(=O)O3)[C@H]21 [compactin, (+)-(1S,3R,7S,8S.8aR)-1,2,3,7,8,8a-hexahydro-7-methyl-8-[2-[(2R,4R)-tetrahydro-4-hydroxy-6-oxo-2H-pyran-2-yl]ethyl]-1-naphthyl (S)-2-methylbutyrate]
cholesterol content in lipid rafts (fraction 3) [1, 6]: decreased | formation of an active complex of γ-secretase in lipid rafts [2, 7]: inhibited the formation of an active complex of γ-secretase in lipid rafts | constituents of γ-secretase (nicastrin, presenilin-1, presenilin-2) in lipid rafts fraction (fraction 3) [2, 7]: disappeared from lipid rafts fraction | flotillin in the lipid rafts fraction (structure of lipid rafts) [3, 6]: still remained in the lipid rafts fraction
